According to publication PMC6158578, “Optimization and Lead Selection of Benzothiazole Amide Analogs Toward a Novel Antimycobacterial Agent” (Frontiers in Microbiology, 2018):
≈ marks a conversion by molar mass, not a printed value. Like-named read-outs stand apart in the source and are kept apart here.

Legend:
[1] = system: M. chelonae (n = 11) clinical isolates; assay: MIC against rapid-growing NTM clinical isolates; type: cell-based; conditions: M. chelonae (n = 11)
[2] = system: M. fortuitum (n = 11) clinical isolates; assay: MIC against rapid-growing NTM clinical isolates; type: cell-based; conditions: M. fortuitum (n = 11)
M. chimaera 1502055 = assay: MIC, Middlebrook medium (7H9 + OADC, 7 days); type: cell-based; conditions: 168 h; M. chimaera 1502055; read-out: MIC
[3] = system: mycolic acid transfer in Mabs ATCC19977; assay: Metabolic labeling with [14C]acetate; type: cell-based, M. abscessus; conditions: 2x and 10x MIC
[4] = system: E. coli ATCC 25922 + PMBN (permeabilized); assay: MIC, spectrum of activity; type: cell-based; conditions: Escherichia coli, ATCC25922
Intracellular Mtb = assay: microbe, parasite or virus in culture; type: cell-based, M. tuberculosis; conditions: Mycobacterium tuberculosis
P. aeruginosa ATCC 35151 = assay: MIC, spectrum of activity; type: cell-based; conditions: Pseudomonas aeruginosa, ATCC35151; P. aeruginosa ATCC 35151; read-out: MIC
HepG2 cytotoxicity, 72 h = type: cell-based; conditions: human, HepG2 cells, HepG2, 72 h, read-out: HepG2 cytotox., IC50
Description: (§1) ADMET assays were performed through NIAID Preclinical Services and Eurofins. Potential for cytotoxicity was monitored in HepG2 cells after 72 h growth in the presence of test compounds, either prepared as 10-point 3-fold serial dilutions or at a fixed 10 μM concentration. Cell viability was measured using the CellTiter-Glo® Luminescent Cell Viability Assay (Promega) or via fluorescent image analysis. Cytotoxicity was expressed as IC50 or as percent reduction of viable cells relative to a reference compound. Metabolic stability of compounds was evaluated via incubation with human liver microsomes at 37°C and quantitative analysis of parent compound by LC-MS/MS in samples removed at 0, 5, 15, 30, and 45 min (Obach, [1999]). For cytochrome P450 (CYP) inhibition assays, compounds were prepared as a 7-point dilution series and incubated with human liver microsomes in buffer containing 2 mM NADPH and probe substrate. […] Thermodynamic solubility of compounds in aqueous media was determined by incubation in 50 mM potassium phosphate buffer (pH 7.4) for 24 h, followed by HPLC-UV detection of compound in the filtrate (Analiza, Cleveland, OH, United States).

in vitro = in vitro ADME; conditions: human, microsomes
Description: as §1

equine erythrocytes = assay: Hemolysis assay; conditions: up to 128 μg/mL, 10 min, room temperature
S. pneumoniae ATCC 49619 = assay: MIC, spectrum of activity; type: cell-based; conditions: Streptococcus pneumoniae, ATCC49619; S. pneumoniae ATCC 49619; read-out: MIC
E. faecalis ATCC 29212 = assay: MIC, spectrum of activity; type: cell-based; conditions: Enterococcus faecalis, ATCC29212; E. faecalis ATCC 29212; read-out: MIC
[5] = system: M. tuberculosis H37Rv mc^2 6206; assay: microbe, parasite or virus in culture; type: cell-based; conditions: Mycobacterium tuberculosis, 168 h
M. avium 101 = assay: MIC, Middlebrook medium (7H9 + OADC, 7 days); type: cell-based; conditions: Mycobacterium avium, 168 h; M. avium 101; read-out: MIC
M. fortuitum 41 = assay: MIC, broth microdilution with resazurin (MHB, 3 days); type: cell-based; conditions: Mycolicibacterium fortuitum; M. fortuitum 41; read-out: MIC
M. abscessus 79 = assay: MIC in MHB versus 7H9+OADC; type: cell-based
[6] = system: E. coli tolC CGSC 5633 (efflux mutant strain); assay: microbe, parasite or virus in culture; type: cell-based; conditions: Escherichia coli
M. chelonae 93 = assay: MIC, broth microdilution with resazurin (MHB, 3 days); type: cell-based; conditions: Mycobacteroides chelonae; M. chelonae 93; read-out: MIC
[7] = system: Anaerobes (n > 20 strains); assay: organism not typed; type: cell-based
M. abscessus ATCC 19977 = assay: MIC, broth microdilution with resazurin (MHB, 3 days); type: cell-based; conditions: Mycobacteroides abscessus, ATCC19977; M. abscessus ATCC 19977; read-out: MIC
Solubility in corn oil = conditions: oil or lipid
[8] = 50% complement-inactivated human serum
M. abscessus 1 = assay: MIC in MHB versus 7H9+OADC; type: cell-based
[9] = system: M. peregrinum ATCC 700686; assay: MIC, broth microdilution with resazurin (MHB, 3 days); type: cell-based; conditions: Mycolicibacterium peregrinum, ATCC700686; M. peregrinum ATCC 700686; read-out: MIC
M. intracellulare 1956 = assay: MIC, Middlebrook medium (7H9 + OADC, 7 days); type: cell-based; conditions: Mycobacterium intracellulare, 168 h; M. intracellulare 1956; read-out: MIC
[10] = system: M. abscessus massiliense 119; assay: MIC, broth microdilution with resazurin (MHB, 3 days); type: cell-based; conditions: Mycobacteroides abscessus; M. abscessus massiliense 119; read-out: MIC
physchem = type: physicochemical; conditions: pH 7.4, aqueous buffer, thermodynamic from solid
Description: as §1

[11] = system: M. abscessus (n = 20) clinical isolates; assay: MIC against rapid-growing NTM clinical isolates; type: cell-based; conditions: M. abscessus (n = 20)
Other NTM (n = 12) = assay: MIC against rapid-growing NTM clinical isolates; type: cell-based; conditions: Other NTM (n = 12)
M. abscessus 21 = assay: MIC in MHB versus 7H9+OADC; type: cell-based
Mtb = assay: microbe, parasite or virus in culture; type: cell-based, M. tuberculosis; conditions: Mycobacterium tuberculosis

## CC12CC3CC(C)(C1)CC(C(=O)Nc1nc4ccc(OC(F)(F)F)cc4s1)(C3)C2 [CRS400226]
Mabs 21; after 4 weeks of treatment
  lung histology: only very mild areas of airway-centric inflammation
Mabs 21; intratracheal 25 mg/kg once daily, 5 days per week, 4 weeks, 5% corn oil/saline emulsion
  reduction of lung CFU compared to the vehicle control: 0.64 Log10 CFU
Mabs 21; up to 4 weeks of treatment, intratracheal 25 mg/kg
  tolerability: well tolerated
[1]
  MIC range: 0.5–0.5 μg/mL
[1]; Mycobacteroides chelonae, read-out: MIC90
  MIC90: 0.5 µg/mL (≈ 1.18 µM)
[2]
  MIC range: 0.12 to 0.5 µg/mL
[2]; Mycolicibacterium fortuitum, read-out: MIC90
  MIC90: 0.5 µg/mL (≈ 1.18 µM)
M. chimaera 1502055
  MIC: 1 µg/mL
[3]
  effect on mycolic acid transfer to arabinogalactan and trehalose dimycolates: concentration-dependent inhibition of mycolic acid transfer
[4]
  MIC: > 64 µg/mL
Intracellular Mtb
  IC90: 0.8 µg/mL (≈ 1.88 µM)
P. aeruginosa ATCC 35151
  MIC: > 64 µg/mL
HepG2 cytotoxicity, 72 h
  IC50 at 72 h: 69 µM
HepG2 cytotoxicity, 72 h; value in brackets
  IC50 at 72 h: 29 µg/mL
In vitro
  microsomal CLint: 124 µL/min/mg
Equine erythrocytes
  Hemolysis: 128 µg/mL
S. pneumoniae ATCC 49619
  MIC: 64 µg/mL (≈ 151 µM)
E. faecalis ATCC 29212
  MIC: > 64 µg/mL
[5]
  MIC: 0.5 µg/mL (≈ 1.18 µM)
M. avium 101
  MIC: 2 µg/mL
M. fortuitum 41
  MIC: 0.12 µg/mL (≈ 0.283 µM)
M. abscessus 79; M. abscessus 79, 7H9 + OADC (5 mg/mL albumin)
  MIC: 2 µg/mL
M. abscessus 79; M. abscessus 79, MHB
  MIC: 0.25 µg/mL (≈ 0.589 µM)
[6]
  MIC: > 64 µg/mL
M. chelonae 93
  MIC: 0.5 µg/mL (≈ 1.18 µM)
[7]
  MIC: > 16 µg/mL
M. abscessus ATCC 19977
  MIC: 0.25 µg/mL (≈ 0.589 µM)
Solubility in corn oil
  solubility: ≤ 250 mg/mL
[8]
  Protein (serum) binding: >95%
M. abscessus 1; M. abscessus 1, 7H9 + OADC (5 mg/mL albumin)
  MIC: 8 µg/mL
M. abscessus 1; M. abscessus 1, MHB
  MIC: 0.25 µg/mL (≈ 0.589 µM)
[9]
  MIC: ≤ 0.06 µg/mL
M. intracellulare 1956
  MIC: 1 µg/mL
[10]
  MIC: 0.25 µg/mL (≈ 0.589 µM)
physchem
  solubility at 24 h: < 3 µM
[11]
  MIC range: 0.25 to 2 µg/mL
[11]; Mycobacteroides abscessus, read-out: MIC90
  MIC90: 0.5 µg/mL (≈ 1.18 µM)
Other NTM (n = 12)
  MIC range: 0.12 to 1 µg/mL
Other NTM (n = 12); read-out: MIC90
  MIC90: 0.5 µg/mL (≈ 1.18 µM)
M. abscessus 21; M. abscessus 21, 7H9 + OADC (5 mg/mL albumin)
  MIC: 8 µg/mL
M. abscessus 21; M. abscessus 21, MHB
  MIC: 0.25 µg/mL (≈ 0.589 µM)
Mtb
  MBC: 10.6 µg/mL (≈ 25 µM)
